Experimental data from ChEMBL document CHEMBL4041538, “Bioreductively activatable prodrug conjugates of phenstatin designed to target tumor hypoxia” (Bioorg Med Chem Lett, 2017).

Key:
Bos taurus = species on record: Bos taurus; assay: Inhibition of [3H]colchicine binding to bovine brain tubulin at 5 uM after 10 mins by scintillation counting method relative to control
[1] = Inhibition of bovine brain tubulin polymerization preincubated for 15 mins followed by GTP addition measured after 20 mins by Spectrophotometric method; set-up: species or system Bos taurus
[2] = molecular target: T1, NADPH--cytochrome P450 reductase (P450 oxidoreductase) (Rattus norvegicus, UniProt P00388); assay: Drug metabolism in pH 7.4 PBS assessed as rat P450 oxidoreductase-mediated compound hydrolysis preincubated for 20 mins followed by protocatechuate 3,4-dioxygenase addition to create anoxic condition and subsequent addition of P450 oxidoreductase in presence of NADPH after 24 hrs by HPLC method; type: ADME; conditions: rat P450 oxidoreductase with NADPH in PBS, read-out: Drug metabolism
T1 sequence (P00388 whole entry): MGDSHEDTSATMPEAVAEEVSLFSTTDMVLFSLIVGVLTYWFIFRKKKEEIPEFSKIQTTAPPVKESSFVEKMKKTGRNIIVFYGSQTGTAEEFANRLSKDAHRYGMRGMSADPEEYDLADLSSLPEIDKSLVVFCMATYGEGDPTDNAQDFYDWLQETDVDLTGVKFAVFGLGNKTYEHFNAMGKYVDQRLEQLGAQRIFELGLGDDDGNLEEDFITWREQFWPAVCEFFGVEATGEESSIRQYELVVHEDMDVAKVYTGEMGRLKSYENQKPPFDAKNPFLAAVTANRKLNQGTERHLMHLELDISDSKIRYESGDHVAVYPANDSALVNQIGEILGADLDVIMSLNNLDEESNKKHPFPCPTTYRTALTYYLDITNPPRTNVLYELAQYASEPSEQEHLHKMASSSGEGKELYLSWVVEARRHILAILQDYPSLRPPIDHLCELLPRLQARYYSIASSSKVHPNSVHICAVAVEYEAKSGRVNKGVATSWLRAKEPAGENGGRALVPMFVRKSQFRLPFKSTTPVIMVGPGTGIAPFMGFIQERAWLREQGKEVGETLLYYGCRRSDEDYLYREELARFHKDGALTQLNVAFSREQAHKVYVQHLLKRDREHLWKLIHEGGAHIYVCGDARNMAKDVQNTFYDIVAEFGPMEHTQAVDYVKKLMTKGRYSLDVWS

[3] = Drug metabolism in pH 7.4 PBS assessed as compound hydrolysis after 24 hrs by HPLC method; type: physicochemical; conditions: read-out: Drug metabolism

SMILES | inhibition (Bos taurus) [%] | IC50 [1] [µM] | metabolised at 24 h [2] [%] | degraded at 24 h [3] [%]
COc1ccc(C(=O)c2cc(OC)c(OC)c(OC)c2)cc1O [PHENSTATIN] | 85 | 1 | – | –
COc1ccc(C(=O)c2cc(OC)c(OC)c(OC)c2)cc1OC(C)(C)c1ccc([N+](=O)[O-])s1 | 16 | 9 | 100 | 0
COc1ccc(/C=C\c2cc(OC)c(OC)c(OC)c2)cc1O [COMBRETASTATIN A4] | – | 0.73 | – | –
COc1ccc(C(=O)c2cc(OC)c(OC)c(OC)c2)cc1OCc1ccc([N+](=O)[O-])cc1 | 11 | > 20 | – | –
COc1ccc(C(=O)c2cc(OC)c(OC)c(OC)c2)cc1OC(C)c1ccc([N+](=O)[O-])s1 (stereo unspecified) | 15 | > 20 | – | –

Continued, values first:

inhibition (Bos taurus) [%] | IC50 [1] [µM] | metabolised at 24 h [2] [%] | degraded at 24 h [3] [%] | SMILES
11 | > 20 | – | – | COc1ccc(C(=O)c2cc(OC)c(OC)c(OC)c2)cc1OC(C)c1cnc([N+](=O)[O-])n1C (stereo unspecified)
17 | 15 | – | – | COc1ccc(C(=O)c2cc(OC)c(OC)c(OC)c2)cc1OCc1ccc([N+](=O)[O-])o1
5.8 | > 20 | – | – | COc1ccc(C(=O)c2cc(OC)c(OC)c(OC)c2)cc1OC(C)c1ccc([N+](=O)[O-])cc1 (stereo unspecified)
7.1 | > 20 | – | – | COc1ccc(C(=O)c2cc(OC)c(OC)c(OC)c2)cc1OCc1cnc([N+](=O)[O-])n1C
16 | 12 | – | – | COc1ccc(C(=O)c2cc(OC)c(OC)c(OC)c2)cc1OC(C)c1ccc([N+](=O)[O-])o1 (stereo unspecified)
13 | > 20 | 100 | 0 | COc1ccc(C(=O)c2cc(OC)c(OC)c(OC)c2)cc1OC(C)(C)c1ccc([N+](=O)[O-])o1
19 | 16 | – | – | COc1ccc(C(=O)c2cc(OC)c(OC)c(OC)c2)cc1OCc1ccc([N+](=O)[O-])s1
8.8 | > 20 | 0 | 0 | COc1ccc(C(=O)c2cc(OC)c(OC)c(OC)c2)cc1OC(C)(C)c1ccc([N+](=O)[O-])cc1
